{
  "source": "patent US20180296456A1",
  "about": "“Decapeptide-12 Modulation of Sirtuin Gene Expression in Epidermal Keratinocyte Progenitors” (Escape Therapeutics, Inc., priority 2017, published 2018)",
  "key": {"melanoblasts": {"test_system": "melanoblasts", "test": "MTT cell proliferation assay, melanoblasts", "type": "cell-based, human", "conditions": "100 μM, 72-hour incubation", "how_it_was_run": "(§1)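 Human fibroblasts and melanoblasts were seeded at 2.5×10^4/well at 37 degrees Celsius, 5 percent CO2. Proliferation was read by MTT kit per manufacturer's protocol.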"}, "SIRT5": {"test_system": "SIRT5", "test": "SIRT5 transcription, semi-quantitative RT-PCR in human epidermal progenitors", "type": "cell-based", "conditions": "72 h", "procedure": "(§2) Human neonatal epidermal progenitors (Thermo Fisher Scientific, NY) were seeded in 6-well plates at a density of 2×10^5 cells/well. Each well received 2 ml of Epilife media containing 60 μM calcium chloride (Thermo Fisher Scientific, NY). Plates were incubated in a humidified chamber at 37 degrees Celsius and 5 percent CO2. Twenty-four hours later, cells were treated with various concentrations of oxyresveratrol or decapeptide-12 dissolved in PBS containing 5 percent DMSO. Control wells received vehicle only (5 percent DMSO and PBS). Final concentration of DMSO in each well was 0.05 percent.\n(§3) After a 72 hour incubation period, cells were trypsinized and total RNA extracted, using RNeasy kit (Qiagen, Valencia, Calif.) according to the manufacturer's protocol.\n(§4) RNA concentration was determined using nanodrop (Thermo fisher scientific, NY). Two μg of total RNA were used to synthesize cDNA using oligo dT primers and TaqMan reverse transcription reagents (Thermo fisher scientific, NY). The reaction was carried out in DNA Engine Peltier Thermal Cycler (Bio-Rad, Hercules, Calif.). The annealing temperature was 25 degrees Celsius for 10 minutes, followed by first strand synthesis at 48 degrees Celsius for 1 hour, and heat inactivation at 95 degrees Celsius for 5 minutes.\n(§5) The SIRT1-7 primers (table 1) were designed using Primer3. The semi-quantitative PCR reactions were performed on a DNA Engine Peltier Thermo Cycler (Bio-Rad, Hercules, Calif.). PCR was carried under the following conditions: denaturation at 94 degrees Celsius for 2 minutes and primer extension at 54 degrees Celsius for 30 seconds in 34 cycles for SIRT 1-7 and the housekeeping gene 18S.\n(§6) Samples were run and resolved on a 1.5 percent agarose gel containing 0.5 μg/ml of ethidium bromide and imaged using the FluorChem HD2 Imaging System (Protein simple, San Jose, Calif.). Densitometry analysis was carried out using the AlphaEase FC software (Protein simple, San Jose, Calif.). Intensity ratios were calculated as the intensity value for each gene divided by the intensity value of the internal control gene 18S.\n(§7) The effect of the decapeptides P4, P4A, P4B, and P4C upon the transcription levels of sirtuins 1-7 was evaluated. Table 4 summarizes transcription levels for all four decapeptides with the corresponding genes, at tested concentrations of: 10, 30, 50, 100, and 300 (all in μM)."}, "fibroblasts": {"test_system": "fibroblasts", "test": "MTT cell proliferation assay, fibroblasts", "type": "cell-based, human", "conditions": "100 μM, 72-hour incubation", "how_it_was_run": "as §1"}, "[1]": {"test": "Trypan blue cell viability, 7 days, fibroblasts", "type": "cell-based", "conditions": "human, relative to control, read-out: fibroblast viability after 7 days", "procedure": "The effect of each of the decapeptides upon cell viability was also tested. In particular, cells were incubated with the decapeptide at various concentrations and then counted for viability relative to the control (untreated cells) using trypan blue. Cytotoxicity was measured according to the following formula:\n[1−(# of cells in control−# of live cells in test sample)/# of cells in control]×100 percent."}, "SIRT6": {"test_system": "SIRT6", "test": "SIRT6 transcription, semi-quantitative RT-PCR in human epidermal progenitors", "type": "cell-based", "conditions": "72 h", "procedure": "as §2, §3, §4, §5, §6, §7"}, "SIRT3": {"test_system": "SIRT3", "test": "SIRT3 transcription, semi-quantitative RT-PCR in human epidermal progenitors", "type": "cell-based", "conditions": "72 h", "procedure": "as §2, §3, §4, §5, §6, §7"}},
  "note": "Peptide text beside a SMILES is read from it.",
  "data": [
    {"smiles": "CCCCCCCCCCCCCCCC(=O)N[C@@H](Cc1ccc(O)cc1)C(=O)N[C@@H](CCCNC(=N)N)C(=O)N[C@@H](CO)C(=O)N[C@@H](CCCNC(=N)N)C(=O)N[C@@H](CCCCN)C(=O)N[C@@H](Cc1ccc(O)cc1)C(=O)N[C@@H](CO)C(=O)N[C@@H](CO)C(=O)N[C@@H](Cc1c[nH]c2ccccc12)C(=O)N[C@@H](Cc1ccc(O)cc1)C(N)=O", "note": "[P4A, Palmitoyl-YRSRKYSSWY-amide] (HELM PEPTIDE1{[CCCCCCCCCCCCCCCC(=O)[*:2]].Y.R.S.R.K.Y.S.S.W.Y.[am]}$$$$V2.0)", "values": [
      {"measurement": "reduction in the proliferation rate", "setting": "melanoblasts", "result": 3, "unit": "%"},
      {"measurement": "SIRT5 transcription increase relative to control", "setting": "SIRT5; 10 μM", "result": "13 ± 2", "unit": "%"},
      {"measurement": "SIRT5 transcription increase relative to control", "setting": "SIRT5; 30 μM", "result": "12 ± 2", "unit": "%"},
      {"measurement": "SIRT5 transcription increase relative to control", "setting": "SIRT5; 50 μM", "result": "10 ± 3", "unit": "%"},
      {"measurement": "SIRT5 transcription increase relative to control", "setting": "SIRT5; 100 μM", "result": "47 ± 7", "unit": "%"},
      {"measurement": "SIRT5 transcription increase relative to control", "setting": "SIRT5; 300 μM", "result": "29 ± 4", "unit": "%"},
      {"measurement": "reduction in the proliferation rate", "setting": "fibroblasts", "result": 3, "unit": "%"},
      {"measurement": "viability at 168 h, 3 µM", "setting": "[1]; 3 μM", "result": 100, "unit": "%"},
      {"measurement": "viability at 168 h, 10 µM", "setting": "[1]; 10 μM", "result": "98.9 ± 1", "unit": "%"},
      {"measurement": "viability at 168 h, 30 µM", "setting": "[1]; 30 μM", "result": "98.4 ± 1", "unit": "%"},
      {"measurement": "viability at 168 h, 50 µM", "setting": "[1]; 50 μM", "result": "98 ± 1", "unit": "%"},
      {"measurement": "viability at 168 h, 100 µM", "setting": "[1]; 100 μM", "result": "97.4 ± 2", "unit": "%"},
      {"measurement": "viability at 168 h, 300 µM", "setting": "[1]; 300 μM", "result": "96.6 ± 2", "unit": "%"},
      {"measurement": "viability at 168 h, 500 µM", "setting": "[1]; 500 μM", "result": "95.5 ± 2", "unit": "%"},
      {"measurement": "viability at 168 h, 1000 µM", "setting": "[1]; 1000 μM", "result": "94.3 ± 2", "unit": "%"},
      {"measurement": "SIRT6 transcription increase relative to control", "setting": "SIRT6; 10 μM", "result": "24 ± 5", "unit": "%"},
      {"measurement": "SIRT6 transcription increase relative to control", "setting": "SIRT6; 30 μM", "result": "25 ± 5", "unit": "%"},
      {"measurement": "SIRT6 transcription increase relative to control", "setting": "SIRT6; 50 μM", "result": "33 ± 7", "unit": "%"},
      {"measurement": "SIRT6 transcription increase relative to control", "setting": "SIRT6; 100 μM", "result": "135 ± 10", "unit": "%"},
      {"measurement": "SIRT6 transcription increase relative to control", "setting": "SIRT6; 300 μM", "result": "85 ± 5", "unit": "%"},
      {"measurement": "SIRT3 transcription increase relative to control", "setting": "SIRT3; 10 μM", "result": "25 ± 4", "unit": "%"},
      {"measurement": "SIRT3 transcription increase relative to control", "setting": "SIRT3; 30 μM", "result": "26 ± 3", "unit": "%"},
      {"measurement": "SIRT3 transcription increase relative to control", "setting": "SIRT3; 50 μM", "result": "60 ± 4", "unit": "%"},
      {"measurement": "SIRT3 transcription increase relative to control", "setting": "SIRT3; 100 μM", "result": "152 ± 2", "unit": "%"},
      {"measurement": "SIRT3 transcription increase relative to control", "setting": "SIRT3; 300 μM", "result": "147 ± 2", "unit": "%"}
    ]}
  ]
}
